In test [1] the test system is male stress-derived axillary odor. In words: Cross-adaptation of male stress-derived axillary odor (odor panel, magnitude estimation of perceived intensity). In kind it is in vivo, human. Particulars: for Magnitude of Reduction of Intensity of Male Stress-Derived Odor (MSDO), Males: male stress-derived odor perceived by men; for Magnitude of Reduction of Intensity of Male Stress-Derived Odor (MSDO), Females: male stress-derived odor perceived by women. An excerpt: (§1) The procedure relies upon an individual constantly sniffing an adapting agent, such as a fragrance, and occasionally a test odorant. Perceived intensity of the test odorant is obtained by using psychophysical, magnitude-estimation procedures. These perceived intensities are obtained every 30 seconds over the test period, and are then compared with baseline perceived intensities obtained before the individual began sniffing the adapting agent. Throughout the testing we observe adaptation to the adapting agent. Results during trials with an inserted test odorant, such as the axillary odor used here, are believed to be reasonably predictive. If the perceived intensity of the test odorant decreases during the test, then the adapting agent cross-adapts the test odorant and becomes a cross-adapting agent. If the cross-adapting agent is itself not offensive, then the cross-adapting agent becomes a candidate for use in formulations in consumer products to ameliorate malodors, such as axillary odor or fecal/urine odors, and odors related to the female menstrual cycle.
(§2) Collection of secretions: Apocrine secretions obtained under stressed conditions provided the axillary odor that was used as the test odorant to evaluate the effectiveness of various adapting agents. Secretions were obtained from males (ages 20 to 60 years) and females (ages 20 to 40 years) in good health. […] Volunteers prepared their axillae for collection of apocrine secretions by refraining from deodorant use for 3 days and shaving their axillae the morning of the collection day.
(§3) Volunteers were rested in a supine position. The axillary regions were washed with isopropanol-soaked pads and injected intradermally with 1:10,000 adrenalin (in physiologic saline). This injection stimulated the secretion of apocrine gland secretions, which were collected in 10 μl pipettes, passed into 0.25 ml Eppendorf tubes, and stored on ice (or frozen for longer storage). The amount of secretion collected varied greatly with the individual subject (≦10 μl). The apocrine secretions from each volunteer were combined by consecutively washing each Eppendorf tube with 2×300 μl of doubly distilled water. This aqueous-apocrine fluid was transferred to a 5 ml round-bottomed flask for hydrolysis. X-N. Zeng, J. J. Leyden, J. G. Brand, A. I. Spielman, K. J. McGinley, G. Preti, An Investigation of Human Apocrine Gland Secretion for Axillary Odor Precursors, 18 J. Chem. Ecol. 1039-1055 (1992); X-N. Zeng, J. J. Leyden, A. I. Spielman and G. Preti Analysis of the characteristic human female axillary odors: Qualitative comparison to males. 22 J. Chem. Ecol. 237-257 (1996).
(§4) Production of odor: To produce quantities of stress-derived axillary odor for testing purposes, we hydrolyzed the apocrine secretion. The aqueous solution was refluxed for 20 min with 0.5 ml, 5% aqueous sodium hydroxide under a stream of nitrogen. The mixture was allowed to cool to room temperature, and then it was cooled in ice prior to being acidified with 6 N HCl to pH 2. The resulting axillary odor developed in the reaction mixture upon acidification was used as the test odorant. The axillary odors generated by this in vitro technique are analogous to the malodors produced by stressed individuals.
Sixteen (16) individuals (8 of each gender) served on an odor panel. Subjects ranged in age from 22 to 55 years (mean 32.7±10.6 s.d.), were not pregnant (by verbal report), and were all non-smokers. All panel members were screened for adequate use of magnitude estimation (some people have difficulties maintaining a ratio scale, i.e., when an odorant is half as strong as the previous, these people fail to provide a number that is half the previous estimate) and further trained in its use during 2-3 training sessions. All 16 subjects were tested with samples of male malodor compared to each of the potential cross-adapting agents. […]

Test [2] relates to female stress-derived axillary odor. The test is described as follows: Cross-adaptation of female stress-derived axillary odor (odor panel, magnitude estimation of perceived intensity). In kind it is in vivo, human. As to conditions: for Magnitude of Reduction of Intensity of Female Stress-Derived Odor (FSDO), Males: female stress-derived odor perceived by men; for Magnitude of Reduction of Intensity of Female Stress-Derived Odor (FSDO), Females: female stress-derived odor perceived by women.
Source text: as §1, §2, §3, §4
A separate panel of 24 subjects (12 males and 12 females) tested samples of female stress-derived axillary odor with potential cross-adapting agents, some of which were not included in Example 1 above. Some of the subjects assessing the effectiveness of cross-adaptation of male stress-derived axillary odor were also used in the experiment with female secretions. However, these two experiments were treated as independent events. All panel members were screened for adequate use of magnitude estimation and further trained in its use during two to three training sessions. […]
Note: key: best: Best = Superior Cross-Adaptation; good: Good = Adequate Cross-Adaptation; poor: Poor = Ineffective Cross-Adaptation.

As for `OCCc1ccccc1` [Phenylethyl Alcohol, phenylethyl alcohol], in test [1], the “Magnitude of Reduction of Intensity of Male Stress-Derived Odor (MSDO), Males” value (shortened to “Magnitude of Reduction … (MSDO), Males”) is on record as “good” and the “Magnitude of Reduction of Intensity of Male Stress-Derived Odor (MSDO), Females” value (from here on “Magnitude of Reduction … (MSDO), Females”) is given as “good”. Moreover, in test [2], the “Magnitude of Reduction of Intensity of Female Stress-Derived Odor (FSDO), Males” value (shortened to “Magnitude of Reduction … (FSDO), Males”) was “good” and the “Magnitude of Reduction of Intensity of Female Stress-Derived Odor (FSDO), Females” value (from here on “Magnitude of Reduction … (FSDO), Females”) is “poor”.
On to `CC(CO)CCCc1ccccc1` (stereo not drawn) [Rosaphen ®, 2-methyl-5-phenylpentan-1-ol], for which, in test [1], the “Magnitude of Reduction … (MSDO), Males” value is listed as “best” and the “Magnitude of Reduction … (MSDO), Females” value was “poor”. In test [2], the “Magnitude of Reduction … (FSDO), Males” value is “good” and the “Magnitude of Reduction … (FSDO), Females” value is given as “poor”.
Regarding `CC(C)=CC1CC(C)CCO1` (stereo not drawn) [Rose Oxide hc, 4-methyl-2-(2-methyl-1-propenyl)tetrahydro-2H-pyran], in test [1], the “Magnitude of Reduction … (MSDO), Males” value was “poor” and the “Magnitude of Reduction … (MSDO), Females” value is “good”. In test [2], the “Magnitude of Reduction … (FSDO), Males” value is “good” and the “Magnitude of Reduction … (FSDO), Females” value is given as “good”.
In the case of `CCC(=CCC1CC=C(C)C1(C)C)CO` (stereo not drawn) [Sandranol ®, 2-ethyl-4-(2,2,3-trimethyl-3-cyclopenten-1-yl)-2-buten-1-ol], in test [1], the “Magnitude of Reduction … (MSDO), Males” value was “good” and the “Magnitude of Reduction … (MSDO), Females” value is “poor”. In addition, in test [2], the “Magnitude of Reduction … (FSDO), Males” value is “good” and the “Magnitude of Reduction … (FSDO), Females” value is given as “good”.
Turning to `CC1=CC(C)C(C=O)CC1` (stereo not drawn) [Vertocitral, 2,4-dimethyl-3-cyclohexene-1-carboxaldehyde], in test [1], the “Magnitude of Reduction … (MSDO), Males” value was “good” and the “Magnitude of Reduction … (MSDO), Females” value is “best”. For the same compound, in test [2], the “Magnitude of Reduction … (FSDO), Males” value is on record as “best” and the “Magnitude of Reduction … (FSDO), Females” value is on record as “best”.
As for `O=C1CCCCCCCCCCCCCCO1` [cpd Supra, oxacyclohexadecan-2-one], in test [1], the “Magnitude of Reduction … (MSDO), Males” value is on record as “poor” and the “Magnitude of Reduction … (MSDO), Females” value is recorded as “poor”. Further, in test [2], the “Magnitude of Reduction … (FSDO), Males” value is “good” and the “Magnitude of Reduction … (FSDO), Females” value is “good”.
As to `CC=CC(=O)C1C(C)=CCCC1(C)C` (stereo not drawn) [α-Damascone, 1-(2,6,6-trimethyl-2-cyclohexen-1-yl)-2-buten-1-one], in test [1], the “Magnitude of Reduction … (MSDO), Males” value was “poor” and the “Magnitude of Reduction … (MSDO), Females” value is “poor”. Besides, in test [2], the “Magnitude of Reduction … (FSDO), Males” value is reported as “poor” and the “Magnitude of Reduction … (FSDO), Females” value was “good”.
As for l-carvone, in test [1], the “Magnitude of Reduction … (MSDO), Males” value is “best” and the “Magnitude of Reduction … (MSDO), Females” value was “best”. Besides, in test [2], the “Magnitude of Reduction … (FSDO), Males” value was “good” and the “Magnitude of Reduction … (FSDO), Females” value is on record as “best”.
As to oxacyclohexadecen-2-one [GLOBALIDE ®], in test [1], the “Magnitude of Reduction … (MSDO), Males” value was “good” and the “Magnitude of Reduction … (MSDO), Females” value was “poor”. In test [2], the “Magnitude of Reduction … (FSDO), Males” value is listed as “poor” and the “Magnitude of Reduction … (FSDO), Females” value is recorded as “good”.

Source of the values: patent US9381142B2, “Olfactory adaptation and cross-adapting agents to reduce the perception of body odors” (Monell Chemical Senses Center, priority 2002, dated 2016).
